Article PMC5915149, “The role of oxidative stress in activity of anticancer thiosemicarbazones” (Oncotarget, 2018)
Like-named read-outs stand apart in the source and are kept apart here.

Legend:
HCT116 [1] = system: HCT116; design: method as in PMID 25329549; conditions: 96 h incubation, MTS; cited from earlier work
HCT116 [2] = test: MTS antiproliferative assay, HCT116 (with or without added metal ions); assay type: cell-based, human; conditions: for IC50: 96 h
Procedure: (§1) The cells were seeded in 96-well plates (Nunc) at a density of 3,500 cells/well (HCT116 and MCF-7) and 3,000 cells/well (NHDF) and incubated at 37° C for 24 h. The assay was performed following a 96 h incubation with varying concentrations of the compounds that were being tested. Then, 20 µL of CellTiter 96® AQueous One Solution-MTS (Promega) was added to each well (with 100 µL DMEM without phenol red) and incubated for 1 h at 37° C. The optical densities of the samples were analyzed at 490 nm using a multi-plate reader (Synergy 4, Bio Tek). Results were expressed as a percentage of the control and calculated as the inhibitory concentration (IC50) values (using GraphPad Prism 5). The IC50 parameter was defined as the compound concentration that was necessary to reduce the proliferation of cells to 50% of the untreated control. Each individual compound was tested in triplicate in a single experiment with each experiment being repeated three or four times.
(§2) The HCT116 and MCF-7 cells were seeded in 96-well plates (Nunc) at a density of 3,500 cells/well and incubated at 37° C for 24 h. The MTS assay was performed following a 96 h incubation with varying concentrations of the tested compounds. Additionally, a 20 µM solution of CuSO4, FeSO4 or FeCl3 was added into wells with the tested compounds. The results were expressed as a percentage of the control and calculated as the inhibitory concentration (IC50) values using GraphPad Prism 5. Each individual compound was tested in triplicate in a single experiment with each experiment being repeated three times.

calf-thymus DNA (CT-DNA) = test: Intercalation, absorption spectra with CT-DNA; assay type: binding; conditions: for % hypochromism / Changes in absorbance / Δε: bound to CT-DNA; for blue/red shift: wavelengths of maximum absorption, compound alone vs DNA-bound
Procedure: For the DNA binding studies, Calf-thymus DNA (CT-DNA) was purchased from Sigma Aldrich. The lyophilized CT-DNA was dissolved in 10 mM Tris-HCl, pH 7.9, mixed gently and left overnight at 4° C. The purity of the CT-DNA solution was determined by measuring the ratio of UV absorbance at 260 and 280 nm. […] Then, the concentration of CT-DNA was determined from the absorbance at 260 nm using an extinction coefficient of 6600 M^–1cm^–1. The tested TSC and DOX were dissolved in DMSO to a concentration of 8.35 mM, which was then used as the stock solution for preparing the various concentrations (25, 12.5, 6 and 3 µM) in 1 mL in 10 mM of Tris-HCl (pH 7.9). Afterwards, 18 µM CT-DNA was added to the prepared solutions, which were incubated for 1.5 h at 37° C with occasional vortexing. The absorption spectra were measured using a Hitachi U-2900 spectrophotometer in range of 200–500 nm. All absorption spectra were imported and compared in OriginPro 8.0.

NHDF = system: NHDF; design: method as in PMID 25329549; conditions: 96 h incubation, MTS; cited from earlier work
MnSOD = test: mRNA expression (Real-Time PCR) of MnSOD; assay type: cell-based, human; conditions: HCT116, TSC 1 µM, 12 or 24 h
Procedure: (§3) The HCT116 cells were seeded in 3 cm Petri dishes (Nunc) at a density of 0.5·10^6 cells/well and incubated overnight. Next, the medium was removed and solutions of TSC (1 μM) and DOX (5 μM) were added. After 12 or 24 h, total RNA was isolated from the cells using TRIzol Reagent (Ambion) according to the manufacturer’s instructions. cDNA synthesis was performed with 5 μg of total RNA using a GoScript™ Reverse Transcriptase kit (Promega) and Oligo(dT)23 Primers (Sigma). The Real-Time PCR was performed with a CTX96 Touch™ Real-Time PCR Detection System (Biorad) in a 20 μL reaction volume. The reaction consisted of PowerUp™ SYBR® Green Master Mix (Applied Biosystems), a primer pair mix (0.5 μM each) and 1 μL of cDNA. All primer pair sequences were purchased from Sigma-Aldrich and are listed in Supplementary Table 2. The experiment was performed under the following conditions: initial denaturation at 95° C for 120 sec; followed by 40 denaturation cycles at 95° C, 15 sec; annealing (primer-specific temperature for 30 sec) and extension at 72° C for 60 sec. Data was analyzed based on a comparison of the expression of the target genes to a reference gene – β-actin, using the 2^–ΔΔCT method. The experiments were performed at least three times.

MCF-7 = test: MTS antiproliferative assay, MCF-7 (with or without added metal ions); assay type: cell-based, human
Procedure: as §1, §2

HCT116 cells = test: Cell cycle assay (Muse Cell-Cycle Kit); assay type: cell-based, human; conditions: HCT116, TSC 1 µM, 48 h
Procedure: The HCT116 cells were seeded in 3 cm Petri dishes (Nunc) at a density of 0.25·10^6 cells/well and incubated at 37° C for 24 h. […] After a 48 h treatment, assays were performed using a Muse Cell-Cycle Kit (Millipore) according to the manufacturer’s instructions. Briefly, cells were collected, washed with cold PBS and centrifuged at 300 g. Then, the cells were fixed in ice cold 70% ethanol and stored at –20° C overnight. Afterwards, the cells were centrifuged and resuspended in 200 μL of Muse™ Cell Cycle Reagent and incubated for 30 min at room temperature in the dark. After staining, the cells were processed for cell cycle analysis using a Muse Cell Analyzer (Millipore). The experiments were performed at least three times.

p21 = test: Western blot of p21; assay type: cell-based, human; conditions: HCT116, 1 µM
Procedure: (§4) The HCT116 cells were seeded in 3 cm Petri dishes (Nunc) at a density of 0.5·10^6 cells/well and incubated overnight. The next day, solutions of TSC (1 μM) and DOX (5 μM) were added and the cells incubated for 24 or 48 h. Cells were harvested by trypsinization and washed with cold PBS. Next, the cells were centrifuged and suspended in an RIPA buffer (Thermo Scientific) containing Halt Protease Inhibitor Cocktail (Thermo Scientific), Halt Phosphatase Inhibitor Cocktail (Thermo Scientific) along with 0.5 M EDTA and lysed for 20 min on ice. Then, the lysates were sonicated, centrifuged at 10,000 rpm for 10 min at 4° C and the supernatants were collected for further analysis. The protein concentration was determined using a Micro BCA™ Protein Assay Kit (Thermo Scientific) according to the manufacturer’s instructions. Equal amounts of the proteins (20 μg) were electrophoresed on SDS-Page gels and transferred onto a nitrocellulose membranes. The membranes were blocked in 5% non-fat milk prepared in PBS containing 0.1% Tween-20 (TPBS) for 1 h. After blocking, the membranes were incubated with specific primary antibodies: cdc2 (#POH1, Cell Signaling), p21^Waf1/Cip1 (#12D1, Cell Signaling), p53 (#1C12, Cell Signaling) and β-Actin (#8H10D10, Cell Signaling) overnight at 4° C, then washed and incubated with horseradish peroxidase (HRP)-conjugated secondary antibodies for 1h at room temperature. All of antibodies were diluted 1:1000 in 5% milk in TPBS. Finally, the membranes were washed and incubated with a SuperSignal™ West Pico Chemiluminescent Substrate (Thermo Scientific). The chemiluminescence signals were captured using a ChemiDoc™ XRS+ System (BioRad). The experiments were performed at least three times. Densitometric analysis was performed using ImageJ 1.41 software (Wayne Rasband, National Institutes of Health, USA).

cdc2 = test: Western blot of cdc2; assay type: cell-based, human; conditions: HCT116, 1 µM
Procedure: as §4

Ndrg1 = test: mRNA expression (Real-Time PCR) of Ndrg1; assay type: cell-based, human; conditions: HCT116, TSC 1 µM, 24 h
Procedure: as §3

CAT = test: mRNA expression (Real-Time PCR) of CAT; assay type: cell-based, human; conditions: HCT116, TSC 1 µM, after the first 12 h
Procedure: as §3

[3] = 20 µM CuSO4 added, read-out: Activity - IC50 HCT116+ Cu^2+
[4] = 20 µM FeCl3 added, read-out: Activity - IC50 HCT116+ Fe^3+
[5] = 96 h, 20 µM CuSO4 added, read-out: Activity - IC50 MCF-7+ Cu^2+
[6] = 96 h, 20 µM FeCl3 added, read-out: Activity - IC50 MCF-7+ Fe^3+
[7] = 96 h incubation, MTS, read-out: Activity - IC50 MCF-7

SMILES | IC50 (HCT116 [1]) | IC50 (HCT116 [2]; [3]) | IC50 (HCT116 [2]; [4]) | % hypochromism (calf-thymus DNA (CT-DNA)) | Changes in absorbance (calf-thymus DNA (CT-DNA)) | Δε (calf-thymus DNA (CT-DNA)) | blue/red shift (calf-thymus DNA (CT-DNA)) | IC50 (NHDF) | mRNA expression of MnSOD (MnSOD) | IC50 (MCF-7; [5]) | IC50 (MCF-7; [6]) | IC50 (MCF-7; [7]) | cells in S phase (HCT116 cells) | expression of p21 protein (densitometric analysis) (p21) | expression of cdc2 protein (densitometric analysis) (cdc2) | mRNA expression of Ndrg1 (Ndrg1) | mRNA expression of CAT (CAT) | other results
S=C(NN=Cc1ccc2ccccc2n1)N1CCN(c2cnccn2)CC1 [Compound 1a] | 87.7 ± 43.9 nM | 59.6 ± 6.45 nM | 96.9 ± 16.9 nM | 22.0% | hypochromism | 3175.6 M⁻¹ cm⁻¹ | 1 nm | 9440 nM | after the initial decline (for 12 h) there is a small increase | 44.9 ± 3.77 nM | 273 ± 35.6 nM | 219 ± 15.1 nM | – | – | – | – | – | –
Oc1cccc2ccc(C=NNC(=S)N3CCOCC3)nc12 [Compound 2a] | 3.84 ± 1.46 nM | 1.39 ± 0.44 nM | 7.57 ± 1.19 nM | 15.7% | hypochromism | 1935.6 M⁻¹ cm⁻¹ | 10 nm | 10600 nM | slight increase | 2.39 ± 0.42 nM | 8.83 ± 1.29 nM | 10.9 ± 2.85 nM | 33–35% | – | – | – | – | –
S=C(NN=C(c1ccccn1)c1ccccn1)N1CCN(c2ccccn2)CC1 [Compound 3b] | 2.06 ± 0.88 nM | 1.56 ± 0.44 nM | 9.94 ± 2.69 nM | 31.9% | hypochromism | 6133.3 M⁻¹ cm⁻¹ | 5 nm | 160 ± 40 nM | large drop | 0.54 ± 0.15 nM | 5.35 ± 0.66 nM | 4.1 ± 0.93 nM | – | increased p21 level, but in a lesser degree | strongest decreasing effect | strongest | higher | cells in G0/G1 phase (HCT116 cells; untreated 72%): 39%; improvement in cytotoxicity after interacting with Cu^2+ (MCF-7; MCF-7 cells, 20 µM CuSO4): eight-fold
Oc1cccc2ccc(C=NNC(=S)N3CCN(c4cnccn4)CC3)nc12 [Compound 2b] | 50.5 ± 28.1 nM | 4.17 ± 1.12 nM | 78.2 ± 14 nM | 9.4% | hypochromism | 1888.9 M⁻¹ cm⁻¹ | 5 nm | 12100 nM | – | 5.49 ± 1.19 nM | 35.8 ± 5.82 nM | 32.2 ± 6.85 nM | 33–35% | – | increased the expression | strongest | higher | improvement in cytotoxicity after interacting with Cu^2+ (HCT116 [2]; HCT116 cells, 20 µM CuSO4): more than a ten-fold increase
CN(C)C(=S)NN=C(c1ccccn1)c1ccccn1 [Dp44mT, di-2-pyridylketone 4,4-dimethyl-3-thiosemicarbazone, reference compound] | 1.4 ± 0.13 nM | – | – | 8.2% | hypochromism | 1673.3 M⁻¹ cm⁻¹ | 2 nm | 15400 nM | – | – | – | – | 41% | marked up-regulation | lowest values | – | – | IC50 (HCT116 [2]; Homo sapiens, HCT-116, 20 µM CuSO4 added, read-out: Activity - IC50 HCT116+ Cu^2+): 0.31 ± 0.06 nM; IC50 (HCT116 [2]; Homo sapiens, HCT-116, 20 µM FeCl3 added, read-out: Activity - IC50 HCT116+ Fe^3+): 1.77 ± 0.36 nM; Selectivity index, calculated for HCT116 (HCT116 [2]; versus NHDF): 10985.7; ability to intercalate DNA (calf-thymus DNA (CT-DNA); CT-DNA, absorption spectra): very weak; IC50 (MCF-7; Homo sapiens, MCF7, 96 h, 20 µM CuSO4 added, read-out: Activity - IC50 MCF-7+ Cu^2+): 0.13 ± 0.04 nM; IC50 (MCF-7; Homo sapiens, MCF7, 96 h, 20 µM FeCl3 added, read-out: Activity - IC50 MCF-7+ Fe^3+): 0.96 ± 0.32 nM; IC50 (MCF-7; Homo sapiens, MCF7, 96 h incubation, MTS, read-out: Activity - IC50 MCF-7): 0.38 ± 0.15 nM; Selectivity index, calculated for MCF-7 (MCF-7; versus NHDF): 40473.7
